Measured values as given in US12458660B2, “Methods of attenuating an immune response by inhibition of BFL1” (CHILDREN'S HOSPITAL MEDICAL CENTER, priority 2018, dated 2025).
Where two headings read alike, the source gives them in different places.

Columns and labels:
[1] = tested on: chorio-decidua neutrophils; assay: Chorio-decidua neutrophil survival in culture (Annexin V-/7aad- by flow cytometry); assay type: cell-based, Rhesus
Description: Importantly, Bcl2A1 was specifically expressed by CD neutrophils, and rhIL1ra decreased BCL2A1+ neutrophils (FIG. 9B). Neutrophil expression of Bcl2A1 could be constitutive or induced. Since control CAD tissue have very few neutrophils, we compared expression of Bcl2A1 and other important mediators of apoptosis in CD neutrophils vs. blood neutrophils from the same IA LPS-exposed animals.
Neutrophils were cultured overnight (16 h) at 37° C., in 5% CO2 in DMEM:F12 containing 10% fetal bovine serum, 100 IU/ml penicillin, 100 IU/ml streptomycin, and 2 mmol/L glutamine, in 24-well plate ([…] were stained with a cocktail of Abs as above for immunophenotyping and analyzed by flow cytometry within 30 minutes and cell survival was indicated as percentage of Annexin V^−/7aad^− cells (BD Bioscience).
The chosen doses were optimum based on dose response curves that were generated using blood neutrophils. ABT737 concentrations≥1 μM were toxic to the cells (not shown).

[2] = Anakinra (rhIL-1ra) pharmacokinetics in pregnant Rhesus macaques, human IL-1ra ELISA; assay type: in vivo, Rhesus macaques (Macaca mulatta)
Description: Recombinant human IL-1 receptor antagonist (“Anakinra” or “rhIL 1ra”) was injected into the amniotic fluid (“AF”) and subcutaneously in the dams (FIG. 3A). […] The low (0.2%) diffusion of Anakinra from maternal blood to amniotic fluid 2 h after maternal subcutaneous (SC) before the AF Anakinra dosing is notable. In addition, a slower clearance of Anakinra from the AF compared to maternal plasma is observed.
(§1) All animal procedures were approved by the Institutional Animal Care and Use Committee at the University of California, Davis. Normally cycling, adult female rhesus macaques (Macaca mulatta) (n=43) were time mated. At ˜130 d of gestation (˜80% of term gestation), the pregnant rhesus received either 1 ml saline solution (n=16) or 1 mg LPS (Sigma-Aldrich, St. Louis, MO) in 1 ml saline solution by ultrasound-guided IA injection. Dams were surgically delivered 16 h (n=13) or 48 h (n=8) later. Multiparous macaques and their fetuses were similar in demographics (Table 4). After delivery, fetuses were euthanized with pentobarbital, and fetal tissues were collected. There were no spontaneous deaths or preterm labor in the animals. IL-1 signaling was blocked by recombinant human IL-1R antagonist (rhIL-1RA; Anakinra Sobi, Stockholm, Sweden) given to the pregnant monkey IA (50 mg) and subcutaneous (100 mg) 1 and 3 h before LPS, as previously described (Rueda et al., 2016; FIG. 3).
Cytokine/chemokine concentrations in AF, fetal, and maternal plasma were determined by Luminex using non-human primate multiplex kits (Millipore). Lipids were extracted from the AF using methanol to measure Prostaglandins PGE2 (Oxford Biomedical Research, Oxford, MI) and PGF2a (Cayman Chemical, Ann Arbor, MI) concentrations. Anakinra (rhIL1ra) levels in AF, fetal, and maternal plasma were determined by human IL1ra/IL-1F3 Quantikine ELISA kit (R&D System, Minneapolis, […]). This kit has low cross-reactivity to Rhesus IL-1ra.

[3] = tested on: IA LPS-induced chorioamnionitis (IL-1 signaling); assay: LPS-induced chorioamnionitis Rhesus monkey model with IL-1R blockade; assay type: in vivo, Rhesus macaques (Macaca mulatta)
From the text: We utilized the LPS-induced chorioamnionitis Rhesus monkey model system to study the pathogenesis of IUI, and particularly the role of IL-1 signaling in chorioamnionitis. A human recombinant IL-1 receptor antagonist (referred to herein as “hIL-lra” or by its generic name, “anakinra”) which inhibits both IL-1β and IL-lα signaling was used to experimentally block IL-1 signaling.
as §1
Both Rhesus and human purified decidua cell suspensions were prepared as previously described (Presicce et al., 2015). Briefly, extra-placental membranes were dissected away from the placenta. Decidua cells were scraped from the amnion-chorion. Amnion was then separated from chorion and flash-frozen for protein and RNA studies. Decidua tissue was washed, and digested with Dispase II (Life Technologies, Grand Island, NY) plus collagenase A (Roche, Indianapolis, IN) for 30 min followed by DNase I (Roche) treatment for another 30 min. Cell suspensions were filtered subjected to Red blood cell lysis and prepared for flow cytometry. Viability was >90% by trypan blue exclusion test.
Commercially available monoclonal antibodies (mAbs) were used for multiparameter flow cytometry (LSR Fortessa 2, BD Biosciences, San Diego, CA) and immunophenotyping was done on fresh chorio-decidua cell suspensions, except for T-cell phenotyping, which was done on cultured cells since cell isolation procedure down-regulates CD4/8 expression. Chorio-decidua cell TNFα expression was measured by flow cytometry with anti-TNF Ab (Cytofix/Cytoperm; BD Bioscience). To measure cytokine expression induced by in vivo exposures, flow cytometry was done on cells immediately after isolation without any stimulation and/or intracellular blockers. For all protocols, cells were treated with […] human immunoglobulin G (IgG) to block Fc receptors, stained for surface markers for 30 min at 4° C. in PBS, washed, and fixed in fixative stabilizing buffer (BD Bioscience). All antibodies were titrated for optimal detection of positive populations and mean fluorescence intensity. At least 500,000 events were recorded for each sample. Doublets were excluded based on forward scatter properties, and dead cells were excluded using LIVE/DEAD Fixable Aqua dead cell stain (Life Technologies). Unstained and negative biological population were used to determine positive staining for each marker. Data were analyzed using FlowJo version 9.5.2 software (TreeStar Inc., Ashland, OR).
Immunofluorescence was performed as previously described (Presicce et al., 2015). Briefly, paraffin embedded Rhesus fetal membrane sections were sectioned, subjected to antigen-retrieval by microwave boiling in citrate buffer followed by incubation with either anti-human CXCL8 (product G265-8; 1:25 dilution; BD Biosciences), or BCL2A1 (product b450; 1:50 dilution; LSBio, Seattle, WA), in 10% normal horse serum/0.2% Tween-20 at 4° C. overnight. […]

[4] = biological target: T1, BCL2A1 (A1) - NOXA binding (Mus musculus, UniProt Q07440, C113S/P104K); assay: Competition fluorescence polarization assay, displacement of FITC-labeled mNOXA peptide from A1; conditions: for inhibition of NOXA binding in combination: with NSC-15508
T1 construct: A1 residues 1-152 (P104K, C113S) were expressed in the BL21 strain of Escherichia coli; hexa-His-MBP (cleaved yes); made in house; host or cells: Escherichia coli BL21
T1 sequence (Q07440 1-152 P104K/C113S): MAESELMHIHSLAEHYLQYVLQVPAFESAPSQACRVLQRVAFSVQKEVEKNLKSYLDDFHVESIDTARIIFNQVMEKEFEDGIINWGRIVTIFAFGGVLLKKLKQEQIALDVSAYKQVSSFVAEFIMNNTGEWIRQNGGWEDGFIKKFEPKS
Description: Representative compounds were additionally tested for inhibition of BH3 binding through competition-based fluorescence polarization (FP) assays. These assays were carried out using fluorescently labeled NOXA peptide which binds within the BH3-binding groove. The FP assay measures the tumbling rate of the labeled NOXA peptide. When NOXA is bound to A1, its rate of tumbling is low (and FP is high), whereas an effective inhibitor compound will displace NOXA, causing a fast rate of tumbling (and low FP value). Initially, a single high-dose experiment was performed with each compound using 100 μM of compound with BCL2A1 and FITC-NOXA, to observe the relative inhibition of the A1-NOXA interaction (FIG. 17B).
These compounds and any that were three standard deviations or more above the thermal shift controls in the DSF assays, along with those that were initially derived from early compounds with reasonable IC50 values, were tested in a dose-response experiment. To this end, 30 putative P2 inhibitors and 44 putative P4 inhibitors had their IC50 values determined. Of the dose responses, there was a surprising enrichment of putative P4 inhibitors among those that had IC50 values less than 50 μM. […] The following linear equation was used in the calculations (Tallarida et al., 2011),
Compounds were additionally tested for specificity of binding by displacement of FITC-labeled mouse NOXA (mNoxa; Peptide 2.0) peptide via fluorescence polarization assay (FP). FP assays were performed in two steps: single-point high-concentration compounds and dose response of fluorescence polarization hits. A1 was added at 3 μM to 100 μM of each compound in 20 mM Tris pH 7, 500 mM NaCl, 0.005% Tween-20 buffer. After addition of 375 nM labeled mNOXA, 96-well plates were incubated overnight at 20° C. in the dark to achieve equilibrium before fluorescence polarization was measured with a Biotek Synergy H2. Autofluorescent compounds and fluorescent quenching compounds were corrected via ratiometric correction as described by Shapiro et al., 2009.
Dose response curves were measured by adding 3 μM A1 to a serial two-fold dilution series of each compound ranging from 400 μM to 781 nM in 20 mM Tris pH 7, 500 mM NaCl, 0.005% Tween-20 buffer. Some compounds were further tested to assess the accuracy of these two-fold dilutions with serial 1.33-fold dilutions. A1, compounds, buffer and lastly, 375 nM FITC-labeled mNOXA were added to each well and incubated in the dark at 20° C. overnight to achieve equilibrium, followed by measurement of polarization. All dose responses were performed in triplicate.

Q: For `CN(C)CC[C@H](CSc1ccccc1)Nc1ccc(S(=O)(=O)NC(=O)c2ccc(N3CCN(Cc4ccccc4-c4ccc(Cl)cc4)CC3)cc2)cc1[N+](=O)[O-]` [ABT-737], which “frequency of chorio-decidua Annexin V-/7aad- (non-apoptotic) neutrophils” value ([1]; 0.1 µM, cultured 16 hr) is on record?
A: did not show any significant effect

Q: And the “concentrations toxic to the cells” value ([1]; dose response curves generated using blood neutrophils, not shown)?
A: ≥ 1 µM

Q: Which “diffusion from maternal blood to amniotic fluid” value ([2]; 2 h after maternal subcutaneous dose, before AF dosing) does the source give for “rhIL1ra: human recombinant IL-1 receptor antagonist which inhibits both IL-1β and IL-1α signaling” here?
A: 0.2%

Q: What about the “transfer to fetal plasma” value ([2]; 19 h level, trans-placental transfer) of the same compound?
A: substantial transfer

Q: What about the “elimination in the AF compared to maternal blood” value ([2]; amniotic fluid vs maternal blood) of the same compound?
A: slower

Q: What about the “concentrations in AF and maternal blood” value ([2]; both compartments) of the same compound?
A: therapeutic concentrations

Q: And the “LPS induced amniotic fluid concentration of PGE2” value ([3]; ELISA of lipid extract)?
A: decreased

Q: And the “LPS-induced pIRAK1 in the amnion” value ([3]; IA LPS 16 h, immunoblot)?
A: decreased

Q: And the “expression of CSF3 in the amnion” value ([3]; IA LPS 16 h, mRNA)?
A: decreased

Q: And the “expression of CXCL8 in the amnion” value ([3]; IA LPS 16 h, mRNA)?
A: decreased

Q: What about the “expression of IL6 in the amnion” value ([3]; IA LPS 16 h, mRNA) of the same compound?
A: decreased

Q: What about the “number (counts) of chorio-decidua neutrophils” value ([3]; IA LPS, FIG. 5B) of the same compound?
A: to near controls levels

Q: What about the “reduction of chorio-decidua neutrophil numbers” value ([3]; IA LPS, blocking IL-1R) of the same compound?
A: ~90%

Q: And the “overall CD leukocyte counts” value ([3]; IA LPS, data not shown)?
A: decreased

Q: What about the “CD16 expression in CD neutrophils” value ([3]; IA LPS, flow cytometry) of the same compound?
A: to near control levels

Q: What about the “CD63 expression in CD neutrophils” value ([3]; IA LPS, flow cytometry) of the same compound?
A: to near control levels

Q: And the “chorio-decidua B-cell numbers” value ([3]; IA LPS, flow cytometry)?
A: to control levels

Q: And the “frequency of TNFα+ CD neutrophils” value ([3]; IA LPS, flow cytometry)?
A: reversed

Q: And the “neutrophil accumulation in the CD” value ([3]; IA LPS, flow cytometry)?
A: reversed

Q: What about the “CAD expression of Bcl2A1” value ([3]; LPS-exposed animals, quantitative PCR) of the same compound?
A: reversed

Q: And the “BCL2A1+ neutrophils” value ([3]; chorio-decidua interface, cell count/HPF)?
A: decreased

Q: What about the “IA LPS induced CD neutrophils expressing CXCL8” value ([3]; immuno-histology) of the same compound?
A: decreased

Q: And the “LPS induced amniotic fluid concentration of CXCL8” value ([3]; multiplex ELISA)?
A: decreased

Q: What about the “LPS induced amniotic fluid concentration of IL6” value ([3]; multiplex ELISA) of the same compound?
A: decreased

Q: What about the “LPS induced amniotic fluid concentration of MCP1” value ([3]; multiplex ELISA) of the same compound?
A: decreased

Q: What does the source list for `Cc1cc(/N=N/c2ccc(/N=N/c3c(O)c(S(=O)(=O)O)cc4cc(S(=O)(=O)O)ccc34)cc2C)ccc1/N=N/c1ccc2cc(S(=O)(=O)O)cc(S(=O)(=O)O)c2c1` [Compound 1.004]?
A: increase in inhibition relative to NSC-45195 ([4]; SAR comparison): roughly a two-fold increase in inhibition; inhibition of NOXA binding in combination [4]: cooperative inhibition

Q: With `Cc1cc(N)ccc1/N=N/c1ccc(/N=N/c2ccc3cc(S(=O)(=O)O)cc(S(=O)(=O)O)c3c2)c(C)c1` [Compound 1.002] as the compound, how does the IC50 ([4]; P4 inhibitor 79711 in combination with P2 inhibitor 97318, read-out: IC50 upon P2 and P4 ligand binding) read?
A: 6.3 µM

Q: What about the IC50 ([4]; compound alone, inhibition of A1-NOXA binding, read-out: IC50) of the same compound?
A: 17.1 µM

Q: Which “additivity for inhibition of A1-Noxa binding, checkerboard assay” value ([4]; NSC-97318 (P2) with NSC-45195 (P4), wide range of concentrations) does the source give for `Cc1cc(O)ccc1/N=N/c1ccc2cc(S(=O)(=O)O)cc(S(=O)(=O)O)c2c1` [Compound 1.003] here?
A: low level additivity

Q: What about the “inhibition of NOXA binding in combination” value [4] of the same compound?
A: cooperative inhibition
